# According to patent US20230287027A1, “ADJUVANT WITH TLR4 AGONIST ACTIVITY” (Sumitomo Pharma Co., Ltd, priority 2020, published 2023):
# Target: T1, mouse TLR4 (Mus musculus, UniProt Q9JHF9+Q9QUK6)
# T1 construct: host or cells: HEK-Blue mTLR4 cell line
# T1 sequence (Q9QUK6 26-835): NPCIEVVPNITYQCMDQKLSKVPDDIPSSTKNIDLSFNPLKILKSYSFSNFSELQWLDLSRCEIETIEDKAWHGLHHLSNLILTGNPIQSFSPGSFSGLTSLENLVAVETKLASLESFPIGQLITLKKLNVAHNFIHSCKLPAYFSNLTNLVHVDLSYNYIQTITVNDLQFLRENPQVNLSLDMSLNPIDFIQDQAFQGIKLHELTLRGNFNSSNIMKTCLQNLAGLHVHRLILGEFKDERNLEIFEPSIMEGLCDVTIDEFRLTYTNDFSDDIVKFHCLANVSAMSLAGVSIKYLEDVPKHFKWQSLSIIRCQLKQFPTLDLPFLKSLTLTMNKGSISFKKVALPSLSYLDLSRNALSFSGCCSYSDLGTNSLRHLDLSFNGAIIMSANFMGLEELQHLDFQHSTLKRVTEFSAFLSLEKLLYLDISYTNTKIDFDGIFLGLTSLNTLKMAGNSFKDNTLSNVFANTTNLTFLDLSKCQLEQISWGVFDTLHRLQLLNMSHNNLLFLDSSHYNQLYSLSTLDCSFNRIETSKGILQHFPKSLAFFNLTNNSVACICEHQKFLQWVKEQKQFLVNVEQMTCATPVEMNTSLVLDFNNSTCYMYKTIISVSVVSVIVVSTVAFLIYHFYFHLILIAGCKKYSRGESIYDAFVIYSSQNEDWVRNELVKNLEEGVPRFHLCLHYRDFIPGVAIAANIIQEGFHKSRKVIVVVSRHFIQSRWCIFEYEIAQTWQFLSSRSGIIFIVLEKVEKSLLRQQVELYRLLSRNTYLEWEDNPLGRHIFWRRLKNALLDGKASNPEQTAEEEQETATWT
# T1 sequence (Q9JHF9 19-160): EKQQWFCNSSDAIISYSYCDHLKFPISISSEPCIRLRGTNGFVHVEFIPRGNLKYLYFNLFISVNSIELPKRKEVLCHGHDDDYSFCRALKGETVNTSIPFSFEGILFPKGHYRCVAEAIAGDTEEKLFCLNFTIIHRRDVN
# Experiment: Mouse TLR4 reporter gene assay (Test 2)
# Format: cell-based
# Conditions: HEK-Blue mTLR4 cell line, SEAP reporter, 37° C. 16-20 hours, 0.1% DMSO; concentration giving half of maximal SEAP level induced with LPS
# Description: Mouse TLR4 Reporter Gene Assay
# HEK-Blue™ mTLR4 cell line (Invivogen) is a stably co-transfected cell line which expresses mouse TLR4, MD2, CD14 and secretory SEAP reporter gene under the transcriptional regulation of an NF-κB response element. The TLR4 expression of the cell line has been already tested by RT-PCR, flow cytometry. Transfectants with stable expression were selected using the antibiotic HEK-Blue™ Selection. TLR signaling leads to the translocation of NF-κB and the activation of the promoter results in expression of the SEAP gene. TLR4-specific activation was assessed by determining the level of SEAP produced following incubation of the cells at 37° C. for 16-20 hours with each compound prepared in Examples and Reference examples in the presence of 0.1% (v/v) DMSO. The mouse TLR4 activity for the present compound was assessed by mouse TLR4 reporter gene assay, and the concentration of the compound concentration which produced half of the maximal level of SEAP induced with LPS was determined as EC50.
row,EC50 [nM],Compound
1,14.3,"CCCCCCCCCCC[C@H](CC(=O)NC1C(OC[C@@H](NC(=O)C[C@@H](CCCCCCCCCCC)OC(=O)CCCCCCCCC)C(=O)O)OC(CO)C(O)C1OC(=O)C[C@@H](CCCCCCCCCCC)OC(=O)CCCCCCCCc1ccccc1)OC(=O)CCCCCCCCC (stereo partly drawn) [Example 1, (2R)-2-{[(3R)-3-(Decanoyloxy)tetradecanoyl]amino}-3-{[3-{[(3R)-3-(decanoyloxy)tetradecanoyl]amino}-5-hydroxy-6-(hydroxymethyl)-4-({(3R)-3-[(9-phenylnonanoyl)oxy]tetradecanoyl}oxy)oxan-2-yl]oxy}propanoic acid]"
2,14.3,"CCCCCCCCCCC[C@H](CC(=O)NC1C(OC[C@H](NC(=O)C[C@@H](CCCCCCCCCCC)OC(=O)CCCCCCCCC)C(=O)O)OC(CO)C(O)C1OC(=O)C[C@@H](CCCCCCCCCCC)OC(=O)CCCCCCCCc1ccccc1)OC(=O)CCCCCCCCC (stereo partly drawn) [Example 2, (2S)-2-{[(3R)-3-(decanoyloxy)tetradecanoyl]amino}-3-{[3-{[(3R)-3-(decanoyloxy)tetradecanoyl]amino}-5-hydroxy-6-(hydroxymethyl)-4-({(3R)-3-[(9-phenylnonanoyl)oxy]tetradecanoyl}oxy)oxan-2-yl]oxy}propanoic acid]"
3,28.4,"CCCCCCCCCCC[C@H](CC(=O)NC1C(OC[C@@H](NC(=O)C[C@@H](CCCCCCCCCCC)OC(=O)CCCCCCCCC)C(=O)O)OC(CO)C(OP(=O)(O)O)C1OC(=O)C[C@@H](CCCCCCCCCCC)OC(=O)CCCCCCCCc1ccccc1)OC(=O)CCCCCCCCC (stereo partly drawn) [Reference example 9, (2R)-2-{[(3R)-3-(Decanoyloxy)tetradecanoyl]amino}-3-{[3-{[(3R)-3-(decanoyloxy)tetradecanoyl]amino}-6-(hydroxymethyl)-4-({(3R)-3-[(9-phenylnonanoyl)oxy]tetradecanoyl}oxy)-5-(phosphonooxy)oxan-2-yl]oxy}propanoic acid, reference compound]"
